This experiment concerns T98G glioma cells. As to the kind of experiment: Cell migration assay, modified Boyden chamber, TWEAK induced. Format: cell-based, human. As to conditions: 10 μM, 5 hours. Here is the method: Cell Migration Assay. The effect of pharmacological inhibition of TWEAK/Fn14 signaling on glioma cell migration was analyzed using a modified Boyden chamber (Neuroprobe, Cabin John, Md.) as described previously (Lamszus, K., et al. (1998) Journal international du cancer 75, 19-28; Brockmann, M. A., et al. (2003) Neurosurgery 52, 1391-1399). Each well contains a […] pore size Nucleopore filter that had been coated with 50 μg/mL PureCol® (Bovine Collagen) (Advanced Biomatrix, Poway, Calif.). T98G glioma cells were treated with selected drug compound for 1 hr and then seeded at 4.8×10^4 cells in 100 μL of DMEM with 0.1% bovine serum assay medium to the top well of the chamber. TWEAK was added to the lower wells of the chamber using DMEM with 0.1% bovine serum albumin as assay medium. After incubation for 5 hours at 37° C., nonmigrated cells were scraped off the upper side of the filter, and filters were stained with 4′,6-diamidino-2-phenylindole (DAPI). Nuclei of migrated cells were counted in 5 high-power fields (HPF) with a 20× objective. Values were assessed in triplicate.

In the case of `O=C(c1cn(-c2cccc(Cl)c2)nn1)N1CCSCC1` [Compound L524-0366], the “TWEAK-induced T98G cell migration” value is reported as “completely suppressed”.

For the origin of these results see patent publication US9238034B2, “FN14 antagonists and therapeutic uses thereof” (THE TRANSLATIONAL GENOMICS RESEARCH INSTITUTE, priority 2013, dated 2016).
